# Reference: US8940742B2, “Heterocyclic compounds and uses thereof” (Infinity Pharmaceuticals, Inc., priority 2012, dated 2015)
# Assays:
# PI3K γ = target: T1, PI3K γ (Homo sapiens, UniProt P48736); assay: PI3-Kinase Promega ADP-Glo Max assay; type: biochemical; conditions: 40 nM kinase, 3 mM ATP, 500 uM diC8-PtdInsP
# T1 construct: purchased Millipore
# Method in brief: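 Human class I PI3K reactions ran 2 hours at room temperature, followed by stop solution (40 min) and detection mix (1 hour) before luminescence reading.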
# RAJI p110 δ = RAJI p110 δ (Homo sapiens, UniProt O00329); assay: RAJI p110 δ cellular assay (phospho-AKT);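 further: potency based on lowered phosphorylated AKT in RAJI cells, as a readout of PI3K-δ dependent B-cell receptor signaling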
# Description: (a) PI3K-δ Selective Assay
# Reduction of phospho-AKT is indicative of compounds that may inhibit B-cell proliferation and function in certain diseases.
# PI3K β = target: T2, PI3K β (Homo sapiens, UniProt P42338); assay: PI3-Kinase Promega ADP-Glo Max assay; type: biochemical; conditions: 40 nM kinase, 3 mM ATP, 500 uM diC8-PtdInsP
# T2 construct: purchased Millipore
# Method in brief: (§1)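 Human class I PI3K (20 nM α or δ, 40 nM β) pre-incubated 15 min with compound in HEPES pH 7.4 buffer with MgCl2, then reacted 2 h at room temperature with 3 mM ATP and 500 uM diC8-PtdInsP. ADP measured by ADP-Glo Max luminescence; % inhibition fitted to 4-parameter logistic for IC50.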
# PI3K α = target: T3, PI3K α (Homo sapiens, UniProt P42336); assay: PI3-Kinase Promega ADP-Glo Max assay; type: biochemical; conditions: 20 nM kinase, 3 mM ATP, 500 uM diC8-PtdInsP
# T3 construct: purchased Millipore
# Method in brief: as §1
# PI3K δ = target: T4, PI3K δ (Homo sapiens, UniProt O00329); assay: PI3-Kinase Promega ADP-Glo Max assay; type: biochemical; conditions: 20 nM kinase, 3 mM ATP, 500 uM diC8-PtdInsP
# T4 construct: purchased Millipore
# Method in brief: as §1
# Raw264.7 p110 γ = target: T5, Raw264.7 p110 γ (Mus musculus, UniProt Q9JHG7); assay: Raw264.7 p110 γ cellular assay (phospho-AKT); type: cell-based; conditions: serum-starved RAW264.7 cells stimulated with C5a
# T5 construct: reduction of phospho-AKT in stimulated RAW 264.7 cells; endogenous in cells; host or cells: RAW264.7 macrophages
# Description: (b) PI3K-γ Selective Assay
# Briefly, serum-starved PAW264.7 cells are stimulated with a known GPCR agonist C5a. […] Cells can be treated with test compounds prior to, simultaneously with, or subsequent to the stimulation by C5a. RAW 264.7 cells respond to the complement component fragment C5a through activation of the C5a receptor, and the C5a receptor activates macrophages and induces cell migration.
# T3 sequence (P42336 whole entry): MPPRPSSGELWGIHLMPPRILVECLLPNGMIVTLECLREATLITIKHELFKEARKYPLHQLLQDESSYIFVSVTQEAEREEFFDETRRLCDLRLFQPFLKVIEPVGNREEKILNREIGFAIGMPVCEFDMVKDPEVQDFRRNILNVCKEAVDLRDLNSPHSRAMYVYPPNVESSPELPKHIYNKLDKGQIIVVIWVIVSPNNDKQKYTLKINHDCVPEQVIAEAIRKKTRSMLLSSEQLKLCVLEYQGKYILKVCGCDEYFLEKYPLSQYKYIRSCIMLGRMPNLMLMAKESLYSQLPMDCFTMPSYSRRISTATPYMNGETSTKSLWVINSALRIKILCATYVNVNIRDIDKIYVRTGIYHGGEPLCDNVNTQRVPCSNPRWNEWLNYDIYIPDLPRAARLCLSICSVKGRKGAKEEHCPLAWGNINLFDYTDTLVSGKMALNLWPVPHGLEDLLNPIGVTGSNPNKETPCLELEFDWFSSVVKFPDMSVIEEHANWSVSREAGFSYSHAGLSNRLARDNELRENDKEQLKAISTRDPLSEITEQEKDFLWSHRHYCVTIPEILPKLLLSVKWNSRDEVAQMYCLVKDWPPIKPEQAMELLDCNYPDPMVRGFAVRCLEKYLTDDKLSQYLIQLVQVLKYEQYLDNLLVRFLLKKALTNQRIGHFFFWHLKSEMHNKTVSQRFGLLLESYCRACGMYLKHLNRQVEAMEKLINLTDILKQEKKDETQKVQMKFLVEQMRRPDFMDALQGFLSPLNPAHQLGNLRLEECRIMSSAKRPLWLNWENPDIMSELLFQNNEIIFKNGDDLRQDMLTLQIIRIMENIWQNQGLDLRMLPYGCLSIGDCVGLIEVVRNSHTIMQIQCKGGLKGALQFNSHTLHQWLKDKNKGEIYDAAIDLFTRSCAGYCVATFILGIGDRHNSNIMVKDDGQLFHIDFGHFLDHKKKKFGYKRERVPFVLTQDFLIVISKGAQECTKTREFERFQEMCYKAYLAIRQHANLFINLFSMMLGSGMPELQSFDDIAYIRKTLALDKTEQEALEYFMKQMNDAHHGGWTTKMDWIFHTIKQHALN
# T3 sequence (P27986 whole entry partner): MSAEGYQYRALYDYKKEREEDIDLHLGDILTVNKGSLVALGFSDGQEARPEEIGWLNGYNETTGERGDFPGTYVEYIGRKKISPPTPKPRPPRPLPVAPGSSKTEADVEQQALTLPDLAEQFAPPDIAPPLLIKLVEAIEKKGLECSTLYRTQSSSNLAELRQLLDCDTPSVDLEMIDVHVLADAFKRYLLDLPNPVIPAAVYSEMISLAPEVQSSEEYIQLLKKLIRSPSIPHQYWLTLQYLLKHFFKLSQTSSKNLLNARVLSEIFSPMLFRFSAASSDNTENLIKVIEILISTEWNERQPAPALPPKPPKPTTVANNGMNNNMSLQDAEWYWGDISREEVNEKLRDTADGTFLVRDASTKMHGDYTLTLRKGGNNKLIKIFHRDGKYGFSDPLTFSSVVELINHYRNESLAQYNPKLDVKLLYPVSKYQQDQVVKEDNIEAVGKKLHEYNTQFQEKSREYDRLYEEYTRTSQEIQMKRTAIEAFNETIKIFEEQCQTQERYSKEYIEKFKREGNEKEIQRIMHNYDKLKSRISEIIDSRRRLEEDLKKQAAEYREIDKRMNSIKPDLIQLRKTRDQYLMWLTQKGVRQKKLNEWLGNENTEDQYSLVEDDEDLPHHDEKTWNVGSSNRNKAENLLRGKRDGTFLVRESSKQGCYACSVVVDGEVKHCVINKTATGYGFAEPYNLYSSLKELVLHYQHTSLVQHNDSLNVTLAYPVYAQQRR
# T1 sequence (P48736 whole entry): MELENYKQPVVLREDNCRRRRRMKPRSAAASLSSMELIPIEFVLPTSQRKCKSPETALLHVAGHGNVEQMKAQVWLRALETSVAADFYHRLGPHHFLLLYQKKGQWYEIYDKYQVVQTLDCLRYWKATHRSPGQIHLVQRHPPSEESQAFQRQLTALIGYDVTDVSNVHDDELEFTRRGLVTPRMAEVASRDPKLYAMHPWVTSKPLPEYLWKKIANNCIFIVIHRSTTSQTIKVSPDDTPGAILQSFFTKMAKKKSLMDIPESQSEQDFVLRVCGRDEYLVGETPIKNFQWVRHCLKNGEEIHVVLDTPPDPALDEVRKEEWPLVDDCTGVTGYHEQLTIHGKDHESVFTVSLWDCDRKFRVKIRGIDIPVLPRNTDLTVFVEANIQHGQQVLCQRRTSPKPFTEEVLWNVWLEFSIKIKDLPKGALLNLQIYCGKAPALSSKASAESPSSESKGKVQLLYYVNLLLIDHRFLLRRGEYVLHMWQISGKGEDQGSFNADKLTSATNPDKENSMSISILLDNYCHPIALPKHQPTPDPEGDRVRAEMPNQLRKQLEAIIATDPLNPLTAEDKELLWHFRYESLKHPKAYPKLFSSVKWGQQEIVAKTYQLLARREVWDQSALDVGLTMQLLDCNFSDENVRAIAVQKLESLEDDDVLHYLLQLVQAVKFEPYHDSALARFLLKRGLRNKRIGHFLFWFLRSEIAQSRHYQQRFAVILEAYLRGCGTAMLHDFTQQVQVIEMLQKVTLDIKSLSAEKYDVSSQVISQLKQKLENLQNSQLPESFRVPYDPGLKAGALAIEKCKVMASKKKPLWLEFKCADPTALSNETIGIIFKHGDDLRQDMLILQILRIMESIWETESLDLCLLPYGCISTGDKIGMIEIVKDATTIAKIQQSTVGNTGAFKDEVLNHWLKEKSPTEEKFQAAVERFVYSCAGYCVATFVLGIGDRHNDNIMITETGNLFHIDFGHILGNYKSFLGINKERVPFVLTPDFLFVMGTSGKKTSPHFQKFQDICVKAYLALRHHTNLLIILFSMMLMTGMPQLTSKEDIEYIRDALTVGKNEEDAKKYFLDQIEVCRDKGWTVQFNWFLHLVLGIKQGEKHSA
# T2 sequence (P42338 whole entry): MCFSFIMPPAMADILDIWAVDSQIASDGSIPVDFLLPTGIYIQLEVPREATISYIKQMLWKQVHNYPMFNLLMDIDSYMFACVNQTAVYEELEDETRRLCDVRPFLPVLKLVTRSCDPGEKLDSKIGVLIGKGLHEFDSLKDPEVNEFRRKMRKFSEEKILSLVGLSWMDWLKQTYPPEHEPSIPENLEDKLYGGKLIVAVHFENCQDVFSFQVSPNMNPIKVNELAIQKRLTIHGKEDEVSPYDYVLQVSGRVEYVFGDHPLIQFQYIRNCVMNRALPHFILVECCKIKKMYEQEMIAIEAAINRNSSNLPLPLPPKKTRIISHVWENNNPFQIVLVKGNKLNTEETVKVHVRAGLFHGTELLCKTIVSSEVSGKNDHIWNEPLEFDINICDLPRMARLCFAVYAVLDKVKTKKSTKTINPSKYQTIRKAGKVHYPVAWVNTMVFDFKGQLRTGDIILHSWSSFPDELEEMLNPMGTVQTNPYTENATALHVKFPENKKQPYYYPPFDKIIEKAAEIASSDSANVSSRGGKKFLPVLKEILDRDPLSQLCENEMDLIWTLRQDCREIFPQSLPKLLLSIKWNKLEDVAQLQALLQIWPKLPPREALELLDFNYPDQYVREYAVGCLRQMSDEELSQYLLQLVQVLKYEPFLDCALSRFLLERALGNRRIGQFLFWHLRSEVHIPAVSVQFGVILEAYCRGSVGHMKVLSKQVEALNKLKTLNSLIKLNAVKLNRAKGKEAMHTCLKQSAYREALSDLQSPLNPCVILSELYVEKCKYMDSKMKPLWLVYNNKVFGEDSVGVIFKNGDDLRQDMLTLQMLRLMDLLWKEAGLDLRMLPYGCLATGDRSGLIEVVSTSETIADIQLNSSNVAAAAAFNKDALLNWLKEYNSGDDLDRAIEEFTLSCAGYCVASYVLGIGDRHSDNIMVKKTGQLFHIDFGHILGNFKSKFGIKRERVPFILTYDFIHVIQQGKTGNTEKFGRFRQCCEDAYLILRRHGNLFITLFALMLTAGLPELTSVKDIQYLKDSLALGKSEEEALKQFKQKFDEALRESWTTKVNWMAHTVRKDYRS
# T2 sequence (P27986 whole entry partner): as the sequence (P27986 whole entry partner) above
# T5 sequence (Q9JHG7 whole entry): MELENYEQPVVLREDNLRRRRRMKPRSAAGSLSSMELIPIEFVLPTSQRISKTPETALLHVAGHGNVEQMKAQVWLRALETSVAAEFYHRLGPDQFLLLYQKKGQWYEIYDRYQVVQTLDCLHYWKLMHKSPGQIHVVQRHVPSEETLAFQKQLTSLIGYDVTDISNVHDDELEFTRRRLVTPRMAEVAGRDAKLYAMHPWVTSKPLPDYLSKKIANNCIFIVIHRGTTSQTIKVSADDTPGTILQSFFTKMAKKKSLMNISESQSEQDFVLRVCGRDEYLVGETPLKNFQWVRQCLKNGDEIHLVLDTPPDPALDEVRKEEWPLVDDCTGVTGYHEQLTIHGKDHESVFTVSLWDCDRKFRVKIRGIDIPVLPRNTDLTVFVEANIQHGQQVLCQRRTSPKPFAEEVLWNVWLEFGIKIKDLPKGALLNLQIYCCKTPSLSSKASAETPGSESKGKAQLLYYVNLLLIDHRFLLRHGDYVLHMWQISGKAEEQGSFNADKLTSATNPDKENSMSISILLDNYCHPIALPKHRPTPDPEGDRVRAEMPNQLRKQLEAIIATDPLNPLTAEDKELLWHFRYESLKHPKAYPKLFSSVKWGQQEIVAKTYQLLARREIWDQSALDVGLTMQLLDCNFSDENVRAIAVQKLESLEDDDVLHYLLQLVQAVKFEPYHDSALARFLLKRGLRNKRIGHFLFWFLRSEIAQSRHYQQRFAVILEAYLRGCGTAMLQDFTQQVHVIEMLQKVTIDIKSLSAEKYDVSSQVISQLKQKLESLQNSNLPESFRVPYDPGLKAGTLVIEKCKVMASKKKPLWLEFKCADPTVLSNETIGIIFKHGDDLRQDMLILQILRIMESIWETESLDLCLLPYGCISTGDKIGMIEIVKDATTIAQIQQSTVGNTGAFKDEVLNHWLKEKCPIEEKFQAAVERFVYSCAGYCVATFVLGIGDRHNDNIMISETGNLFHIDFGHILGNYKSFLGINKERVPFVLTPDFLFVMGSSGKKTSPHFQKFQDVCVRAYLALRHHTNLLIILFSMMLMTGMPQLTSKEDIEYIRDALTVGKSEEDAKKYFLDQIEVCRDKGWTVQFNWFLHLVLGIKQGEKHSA
SMILES,IC50 (PI3K γ) [µM],IC50 (RAJI p110 δ) [µM],IC50 (PI3K β) [µM],IC50 (PI3K α) [µM],IC50 (PI3K δ) [µM],IC50 (Raw264.7 p110 γ) [µM]
CC(=O)NCC#Cc1cccc2cc([C@H](C)NC(=O)c3c(N)nn4cccnc34)n(-c3ccccc3)c(=O)c12 [Compound 165],< 0.1,< 0.1,1 to 10,1 to 10,1 to 10,< 0.1
CC#Cc1cccc2cc([C@H](C)NC(=O)c3c(N)nn4cccnc34)n(-c3ccccc3)c(=O)c12 [Compound 167],< 0.1,< 0.1,1 to 10,1 to 10,1 to 10,< 0.1
C[C@H](NC(=O)c1nc(-c2cccc(NS(C)(=O)=O)c2)c(N)nc1N)c1cc2cccc(Cl)c2c(=O)n1-c1ccccc1 [Compound 169],< 0.1,< 0.1,< 0.1,< 0.1,0.1 to 1,< 0.1
C[C@H](NC(=O)c1nc(-c2cccc(NS(C)(=O)=O)c2)cnc1N)c1cc2cccc(Cl)c2c(=O)n1C1CC1 [Compound 171],< 0.1,< 0.1,0.1 to 1,1 to 10,1 to 10,< 0.1
CC(C)c1ccn2nc(N)c(C(=O)N[C@@H](C)c3cc4cccc(Cl)c4c(=O)n3-c3ccccc3)c2n1 [Compound 178],1 to 10,0.1 to 1,1 to 10,> 10,1 to 10,< 0.1
C[C@H](NC(=O)c1c(N)nn2cccnc12)c1cc2cccc(N(C)C)c2c(=O)n1-c1ccccc1 [Compound 180],1 to 10,1 to 10,> 10,> 10,> 10,0.1 to 1
C[C@H](NC(=O)c1nc(-c2cccc(NS(C)(=O)=O)c2)cnc1N)c1cc2cccc(Cl)c2c(=O)n1C [Compound 183],< 0.1,< 0.1,< 0.1,0.1 to 1,0.1 to 1,< 0.1
C[C@H](NC(=O)c1c(N)nn2cccnc12)c1cc2cccc(N3CCOCC3)c2c(=O)n1-c1ccccc1 [Compound 184],1 to 10,1 to 10,> 10,> 10,> 10,0.1 to 1
COc1cc(-c2cccc3cc([C@H](C)NC(=O)c4c(N)nn5ccc(C)nc45)n(-c4ccccc4)c(=O)c23)ccn1 [Compound 186],0.1 to 1,< 0.1,> 10,1 to 10,1 to 10,< 0.1
C[C@H](NC(=O)c1c(N)nn2cccnc12)c1cc2cccc(C#CCNS(C)(=O)=O)c2c(=O)n1-c1ccccc1 [Compound 187],0.1 to 1,0.1 to 1,1 to 10,1 to 10,1 to 10,< 0.1
COc1cc(-c2cccc3cc([C@H](C)NC(=O)c4c(N)nn5cccnc45)n(-c4cccc(F)c4)c(=O)c23)ccn1 [Compound 189],0.1 to 1,0.1 to 1,> 10,1 to 10,1 to 10,< 0.1
C[C@H](NC(=O)c1c(N)nn2cccnc12)c1cc2cccc(F)c2c(=O)n1-c1ccccc1 [Compound 191],< 0.1,< 0.1,0.1 to 1,1 to 10,0.1 to 1,< 0.1
C[C@H](NC(=O)c1c(N)nn2cccnc12)c1cc2cccc(C3CC3)c2c(=O)n1-c1ccccc1 [Compound 193],1 to 10,0.1 to 1,> 10,> 10,1 to 10,< 0.1
C[C@H](NC(=O)c1nc(-c2cccc(S(=O)(=O)NC3CC3)c2)cnc1N)c1cc2cccc(Cl)c2c(=O)n1C [Compound 194],< 0.1,< 0.1,< 0.1,0.1 to 1,0.1 to 1,< 0.1
C[C@H](NC(=O)c1c(N)nn2cccnc12)c1cc2cccc(Cl)c2c(=O)n1C1CCCCC1 [Compound 196],1 to 10,< 0.1,1 to 10,1 to 10,1 to 10,< 0.1
C[C@H](NC(=O)c1c(N)nn2cccnc12)c1cc2ccsc2c(=O)n1-c1ccccc1 [Compound 198],1 to 10,0.1 to 1,1 to 10,> 10,1 to 10,0.1 to 1
C[C@H](NC(=O)c1c(N)nn2cccnc12)c1cc2cccc(C=O)c2c(=O)n1-c1ccccc1 [Compound 201],1 to 10,0.1 to 1,1 to 10,> 10,1 to 10,< 0.1
CC(=O)Nc1cccc(-c2cccc3cc([C@H](C)NC(=O)c4c(N)nn5cccnc45)n(-c4ccccc4)c(=O)c23)c1 [Compound 202],0.1 to 1,< 0.1,> 10,1 to 10,1 to 10,0.1 to 1
CC(=O)Nc1ccc(-c2cccc3cc([C@H](C)NC(=O)c4c(N)nn5cccnc45)n(-c4ccccc4)c(=O)c23)cc1 [Compound 203],0.1 to 1,< 0.1,> 10,1 to 10,1 to 10,< 0.1
C[C@H](NC(=O)c1c(N)nn2cccnc12)c1cc2scc(-c3cnn(C)c3)c2c(=O)n1-c1ccccc1 [Compound 209],1 to 10,1 to 10,> 10,> 10,> 10,0.1 to 1
C[C@H](NC(=O)c1c(N)nn2cccnc12)c1cc2scc(Cl)c2c(=O)n1-c1ccccc1 [Compound 212],< 0.1,< 0.1,0.1 to 1,1 to 10,0.1 to 1,< 0.1
C[C@H](NC(=O)c1c(N)ncc2cccnc12)c1cc2cccc(N3CCOCC3)c2c(=O)n1-c1ccccc1 [Compound 214],0.1 to 1,< 0.1,> 10,> 10,1 to 10,< 0.1
CC(NC(=O)c1c(N)nn2cccnc12)c1cc2cccc(Cl)c2nc1-c1ccccc1 (stereo not drawn) [Compound 218],1 to 10,< 0.1,1 to 10,> 10,1 to 10,< 0.1
COc1cc(-c2cccc3cc(C(C)NC(=O)c4c(N)nn5cccnc45)c(-c4ccccc4)nc23)ccn1 (stereo not drawn) [Compound 219],1 to 10,0.1 to 1,> 10,> 10,> 10,< 0.1
COc1cc(-c2cccc3cc([C@H](C)NC(=O)c4c(N)nn5cccnc45)n(C)c(=O)c23)ccn1 [Compound 220],1 to 10,< 0.1,> 10,1 to 10,1 to 10,< 0.1
C[C@H](NC(=O)c1c(N)nn2cccnc12)c1cc2cccc(-c3ccn[nH]3)c2c(=O)n1-c1ccccc1 [Compound 221],0.1 to 1,0.1 to 1,> 10,1 to 10,1 to 10,< 0.1
C[C@H](NC(=O)c1c(N)nn2cccnc12)c1cc2cccc(-c3cnn(C)c3)c2c(=O)n1-c1ccccc1 [Compound 222],0.1 to 1,< 0.1,> 10,> 10,1 to 10,< 0.1
